# Assay results taken from US11021435B2, “Serotonin receptor-targeting compounds and methods” (priority 2014, dated 2021).
# “Also recorded” adds a separate entry of the source.
# Legend:
# [1] = molecular target: T1, 5-HT2A (Homo sapiens, UniProt P28223); experiment: Binding affinity, HEK293 cells transiently over-expressing human 5-HT2A; design: expressed in transfected cells; host or cells: HEK293, transient; details: for Ki: human, mean (SEM)
# [2] = molecular target: T2, mouse 5-HT2C receptor (m5-HT2C-VNV) (Mus musculus, UniProt P34968, I157V/I161V); experiment: Binding affinity, HEK293 cells transiently expressing mouse 5-HT2C; details: for Ki: mouse m5-HT2C-VNV
# T2 construct: expressed in transfected cells; host or cells: HEK293, transient
# T2 sequence (P34968 33-459 I157V/I161V): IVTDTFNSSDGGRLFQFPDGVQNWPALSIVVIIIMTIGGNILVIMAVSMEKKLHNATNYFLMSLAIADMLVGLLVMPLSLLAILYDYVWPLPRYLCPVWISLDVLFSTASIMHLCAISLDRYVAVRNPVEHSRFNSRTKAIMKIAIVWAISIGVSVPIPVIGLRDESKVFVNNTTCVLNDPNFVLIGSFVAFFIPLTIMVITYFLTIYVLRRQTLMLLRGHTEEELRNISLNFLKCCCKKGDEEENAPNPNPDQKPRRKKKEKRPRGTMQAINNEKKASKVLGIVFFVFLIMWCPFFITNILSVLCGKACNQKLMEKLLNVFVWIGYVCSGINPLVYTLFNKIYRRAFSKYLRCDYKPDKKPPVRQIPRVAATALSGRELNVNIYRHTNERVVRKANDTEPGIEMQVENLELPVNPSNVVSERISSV
# [3] = molecular target: T3, adrenergic α1B receptor (Homo sapiens, UniProt P35368); experiment: Off-target binding affinity, adrenergic α1B
# T3 construct: expressed in transfected cells; host or cells: HEK293, transient
# T3 sequence (P35368 1-520): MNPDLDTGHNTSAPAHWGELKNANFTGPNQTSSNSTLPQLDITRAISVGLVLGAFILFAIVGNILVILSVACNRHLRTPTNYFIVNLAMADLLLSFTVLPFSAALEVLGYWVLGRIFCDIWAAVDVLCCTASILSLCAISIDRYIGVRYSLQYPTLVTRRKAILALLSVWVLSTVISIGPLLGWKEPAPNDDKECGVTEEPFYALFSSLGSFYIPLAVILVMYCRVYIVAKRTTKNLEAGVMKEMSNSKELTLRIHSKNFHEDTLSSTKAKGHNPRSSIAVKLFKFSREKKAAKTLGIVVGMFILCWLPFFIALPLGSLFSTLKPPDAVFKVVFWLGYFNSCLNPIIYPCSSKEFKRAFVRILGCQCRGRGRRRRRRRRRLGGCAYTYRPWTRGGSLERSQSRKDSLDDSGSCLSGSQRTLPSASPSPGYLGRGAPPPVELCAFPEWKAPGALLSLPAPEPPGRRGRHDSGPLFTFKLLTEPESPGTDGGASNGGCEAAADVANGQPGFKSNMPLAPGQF
# [4] = molecular target: T4, human 5-HT7 receptors (Homo sapiens, UniProt P34969); experiment: Functional assay, 5-HT7 Gs-cAMP signaling, relative to AS-19; format: cell-based; details: for Functional activity at 5-HT7, in words / EC50: Gs-cAMP signaling
# T4 construct: expressed in transfected cells
# [5] = molecular target: T5, dopamine D2 receptor (Homo sapiens, UniProt P14416); experiment: Off-target binding affinity, dopamine D2
# T5 construct: expressed in transfected cells; host or cells: HEK293, transient
# [6] = molecular target: T6, adrenergic α1A receptor (Homo sapiens, UniProt P35348); experiment: Off-target binding affinity, adrenergic α1A
# T6 construct: expressed in transfected cells; host or cells: HEK293, transient
# T6 sequence (P35348 1-466): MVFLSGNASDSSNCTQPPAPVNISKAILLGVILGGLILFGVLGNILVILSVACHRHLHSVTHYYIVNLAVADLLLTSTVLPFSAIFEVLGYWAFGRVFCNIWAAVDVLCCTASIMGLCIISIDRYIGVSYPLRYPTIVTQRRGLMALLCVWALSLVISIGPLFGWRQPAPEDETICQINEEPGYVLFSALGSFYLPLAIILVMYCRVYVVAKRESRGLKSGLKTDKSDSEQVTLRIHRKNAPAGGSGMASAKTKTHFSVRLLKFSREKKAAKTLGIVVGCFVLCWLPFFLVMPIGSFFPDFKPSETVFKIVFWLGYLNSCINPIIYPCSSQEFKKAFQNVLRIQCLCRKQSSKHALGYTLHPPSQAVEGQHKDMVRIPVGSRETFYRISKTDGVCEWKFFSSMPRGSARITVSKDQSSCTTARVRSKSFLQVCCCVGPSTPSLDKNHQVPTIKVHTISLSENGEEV
# [7] = molecular target: T7, 5-HT2B (Homo sapiens, UniProt P41595); experiment: Binding affinity, HEK293 cells transiently over-expressing human 5-HT2B; design: expressed in transfected cells; host or cells: HEK293, transient; details: mean (SEM)
# [8] = molecular target: T8, 5-HT2C receptors (5-HT2C-INI) (Homo sapiens, UniProt P28335); experiment: Binding affinity, HEK293 cells transiently over-expressing human 5-HT2C; details: human 5-HT2C-INI
# T8 construct: expressed in transfected cells; host or cells: HEK293, transient
# T8 sequence (P28335 33-458): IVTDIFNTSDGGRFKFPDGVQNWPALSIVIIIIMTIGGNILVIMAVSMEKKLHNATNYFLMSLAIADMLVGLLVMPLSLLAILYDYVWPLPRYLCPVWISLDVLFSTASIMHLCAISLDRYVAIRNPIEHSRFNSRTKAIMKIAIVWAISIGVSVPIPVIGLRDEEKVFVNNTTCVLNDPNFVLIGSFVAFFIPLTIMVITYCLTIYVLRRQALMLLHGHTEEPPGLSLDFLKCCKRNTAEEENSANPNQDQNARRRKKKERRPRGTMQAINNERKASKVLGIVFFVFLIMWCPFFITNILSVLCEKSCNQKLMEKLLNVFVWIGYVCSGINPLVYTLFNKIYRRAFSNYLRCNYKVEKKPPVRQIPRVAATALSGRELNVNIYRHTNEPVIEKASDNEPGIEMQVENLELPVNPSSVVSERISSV
# [9] = molecular target: T9, 5-HT2C (Homo sapiens, UniProt P28335); experiment: Functional assay at 5-HT2C, relative to 5-HT; format: cell-based; design: expressed in transfected cells; host or cells: HEK293, transient
# T9 sequence (P28335 33-458): T8 sequence (P28335 33-458)
# [10] = molecular target: T1, 5-HT2A; experiment: Functional assay at 5-HT2A, relative to 5-HT; format: cell-based; design: expressed in transfected cells; host or cells: HEK293, transient; details: for Functional activity at 5-HT2A, in words: no activation stated up to 100 μM
# [11] = molecular target: T10, histamine H1 receptor (Homo sapiens, UniProt P35367); experiment: Off-target binding affinity, histamine H1
# T10 construct: expressed in transfected cells; host or cells: HEK293, transient
# [12] = molecular target: T7, 5-HT2B; experiment: Functional assay at 5-HT2B, relative to 5-HT; format: cell-based; design: expressed in transfected cells; host or cells: HEK293, transient; details: for Functional activity at 5-HT2B, in words: up to 100 μM
# [13] = % of maximal response relative to AS-19, mean (SEM)
# [14] = % of maximal response relative to 5-HT, mean (SEM)
# T4 sequence (P34969 1-445 isoform P34969-2): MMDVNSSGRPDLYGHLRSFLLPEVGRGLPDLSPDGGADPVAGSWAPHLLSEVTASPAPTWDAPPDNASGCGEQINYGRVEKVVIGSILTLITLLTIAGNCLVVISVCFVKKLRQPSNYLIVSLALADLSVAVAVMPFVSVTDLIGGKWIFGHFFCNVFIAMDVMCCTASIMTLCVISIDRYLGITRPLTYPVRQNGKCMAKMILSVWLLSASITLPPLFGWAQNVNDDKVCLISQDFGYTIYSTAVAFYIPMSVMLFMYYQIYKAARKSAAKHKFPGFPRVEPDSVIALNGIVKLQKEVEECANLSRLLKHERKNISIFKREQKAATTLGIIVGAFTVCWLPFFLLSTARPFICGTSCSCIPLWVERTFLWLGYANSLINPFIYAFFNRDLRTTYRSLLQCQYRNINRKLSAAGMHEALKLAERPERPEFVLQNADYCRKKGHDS
# T1 sequence (P28223 whole entry): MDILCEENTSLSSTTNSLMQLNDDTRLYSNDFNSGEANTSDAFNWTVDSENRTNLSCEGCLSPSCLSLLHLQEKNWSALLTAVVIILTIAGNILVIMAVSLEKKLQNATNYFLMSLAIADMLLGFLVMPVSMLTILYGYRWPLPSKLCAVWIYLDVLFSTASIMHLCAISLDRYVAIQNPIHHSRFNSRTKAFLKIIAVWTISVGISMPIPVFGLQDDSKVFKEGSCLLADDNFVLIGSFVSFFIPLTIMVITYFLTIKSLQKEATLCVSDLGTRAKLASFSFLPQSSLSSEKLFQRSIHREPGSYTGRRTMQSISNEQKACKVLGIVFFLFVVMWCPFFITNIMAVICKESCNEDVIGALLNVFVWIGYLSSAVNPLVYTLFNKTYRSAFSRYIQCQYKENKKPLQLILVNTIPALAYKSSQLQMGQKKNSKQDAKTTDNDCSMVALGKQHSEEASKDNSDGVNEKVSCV
# T7 sequence (P41595 whole entry): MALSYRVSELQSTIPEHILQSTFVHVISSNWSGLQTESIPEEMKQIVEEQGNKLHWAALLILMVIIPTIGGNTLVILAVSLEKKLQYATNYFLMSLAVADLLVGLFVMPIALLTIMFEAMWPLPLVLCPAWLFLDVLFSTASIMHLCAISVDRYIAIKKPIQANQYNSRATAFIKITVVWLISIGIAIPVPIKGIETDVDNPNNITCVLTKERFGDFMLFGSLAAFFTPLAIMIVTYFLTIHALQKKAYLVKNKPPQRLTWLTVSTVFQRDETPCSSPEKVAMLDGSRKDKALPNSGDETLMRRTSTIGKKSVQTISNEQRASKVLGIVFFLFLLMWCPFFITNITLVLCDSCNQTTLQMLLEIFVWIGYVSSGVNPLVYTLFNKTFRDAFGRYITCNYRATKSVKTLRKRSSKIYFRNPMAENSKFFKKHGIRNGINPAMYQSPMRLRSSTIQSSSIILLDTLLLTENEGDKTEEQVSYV
# T5 sequence (P14416 whole entry): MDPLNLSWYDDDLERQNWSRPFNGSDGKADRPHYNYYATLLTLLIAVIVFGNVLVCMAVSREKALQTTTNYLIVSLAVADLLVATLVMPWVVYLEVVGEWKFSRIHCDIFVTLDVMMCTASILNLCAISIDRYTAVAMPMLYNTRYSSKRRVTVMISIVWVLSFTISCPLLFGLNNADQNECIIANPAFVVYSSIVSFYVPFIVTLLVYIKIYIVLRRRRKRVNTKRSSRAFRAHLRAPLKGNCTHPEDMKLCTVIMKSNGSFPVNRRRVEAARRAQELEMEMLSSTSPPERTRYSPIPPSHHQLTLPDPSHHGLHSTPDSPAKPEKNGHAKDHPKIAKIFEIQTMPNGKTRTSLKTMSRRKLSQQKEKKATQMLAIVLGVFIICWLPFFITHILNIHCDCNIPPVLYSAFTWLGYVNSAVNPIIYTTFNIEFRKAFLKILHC
# T10 sequence (P35367 whole entry): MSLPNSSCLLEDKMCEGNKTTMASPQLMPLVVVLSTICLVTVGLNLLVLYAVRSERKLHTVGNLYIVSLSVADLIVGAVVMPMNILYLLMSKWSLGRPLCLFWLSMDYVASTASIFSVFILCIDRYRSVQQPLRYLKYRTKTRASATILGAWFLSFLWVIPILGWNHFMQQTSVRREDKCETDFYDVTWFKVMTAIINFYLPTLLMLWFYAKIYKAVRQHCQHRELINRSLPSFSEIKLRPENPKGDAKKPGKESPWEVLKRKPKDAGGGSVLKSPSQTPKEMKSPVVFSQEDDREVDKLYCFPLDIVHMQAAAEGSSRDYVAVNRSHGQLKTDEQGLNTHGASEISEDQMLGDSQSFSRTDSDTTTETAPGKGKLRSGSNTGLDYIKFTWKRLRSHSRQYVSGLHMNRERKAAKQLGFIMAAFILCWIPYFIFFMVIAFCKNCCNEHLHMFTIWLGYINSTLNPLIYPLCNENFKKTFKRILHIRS
Structure (SMILES),Ki [1],Ki [3],"Functional activity at 5-HT7, in words [4]",EC50 ([4]; mean (SEM)),Ki [5],Ki [6],Ki [7],"Functional activity at 5-HT2C, in words [9]","Functional activity at 5-HT2A, in words [10]",Ki [11],"Functional activity at 5-HT2B, in words [12]",other results
"CN(C)C1CCc2c(cccc2-c2ccccc2F)C1 (single isomer, unassigned; (-)) [(−)-5-FPT, 5-(2′-fluorophenyl)-N,N-dimethyl-1,2,3,4-tetrahydronaphthalen-2-amine]",119 nM,> 10000 nM,partial agonism; also recorded: low-potency,378 nM,> 1000 nM,> 10000 nM,684 nM,low-potency,did not activate,> 1000 nM,did not activate,"Higher affinity than (+)-5-FPT at human 5-HT2A receptors [1]: ~8 fold; Ki ([2]; bound given in μM): > 1 µM; EMAX 5-HT7 [4, 13]: 29%; 5-HT7 functional potency, (−)-enantiomer less potent than (+)-isomer ([4]; ratio of EC50 values): about 11 times; Ki ([8]; bound given in μM): > 1 µM"
"CN(C)C1CCc2c(cccc2-c2ccccc2F)C1 (single isomer, unassigned; (+)) [(+)-5-FPT, 5-(2′-fluorophenyl)-N,N-dimethyl-1,2,3,4-tetrahydronaphthalen-2-amine]",886 nM,> 10000 nM,partial agonist,34 nM,> 1000 nM,> 10000 nM,60 nM,nearly full-efficacy agonist,"very low potency, partial agonist",> 1000 nM,devoid of 5-HT2B activity,"Affinity at 5-HT2A receptors, in words [1]: very low; Mouse 5-HT2C versus human 5-HT2C receptor affinity [2]: ~2.5 times; Ki ([2]; mean (SEM)): 0.644 µM; Emax [4, 13]: 33%; Ki ([8]; mean (SEM)): 0.269 µM; Emax [9, 14]: 87%; EC50 ([9]; mean (SEM)): 230 nM; Emax [10, 14]: 39%; EC50 ([10]; mean (SEM)): 3530 nM; EC50 5-HT2B ([12]; Inactive = no activation up to 100 μM): Inactive; EMAX 5-HT2B ([12]; relative to 5-HT, Inactive = no activation up to 100 μM): Inactive"
